IC50 data for 87 compounds are collected here from PubChem BioAssay AID2305 (GlaxoSmithKline (GSK), 2010).

SMILES strings stand for the structures. “And” between values parts separate entries of the source, which are not always exact repeats. Equal values may be shown once.

In this assay the test system is P. falciparum 3D7 growth, pLDH absorbance. As to the kind of experiment: blood-stage malaria parasite growth potency – strain 3D7, dose response (AID 2305).
For `CN1CCC(NC(=O)c2cc(Oc3ccc4c(c3)CCN4C(=O)Nc3cccc(C(F)(F)F)c3)ccn2)CC1`, the concentration for half-maximal inhibition (IC50) (commonly the point on the concentration scale where inhibition reaches its midpoint) came out at 930 nM.

In the case of `Cc1cc(C2NC(=O)c3ccccc3N2)c(C)n1-c1ccc2c(c1)OCO2` (configuration not stated), the IC50 came to 730 nM.

The compound `COc1cc(NC(=O)/C=C/c2cc(F)cc(F)c2F)cc(OCCN2CCC3(CC2)OCCO3)c1` came in with an IC50 of 270 nM.

For `C=CCn1c(C)cc(C(=O)COc2ccc(S(=O)(=O)N3CCOCC3)cc2[N+](=O)[O-])c1C`, the IC50 is 1110 nM.

As to `O=C(NCCCCN1CCCC2c3ccc(O)cc3CCC21)c1ccc(-c2ccccc2)cc1` (configuration not stated), the IC50 is 730 nM and 940 nM.

`Cc1cc(C(=O)Nc2ccc(OCc3ccccc3)cc2)on1`: the IC50 was determined as 990 nM.

Turning to `Fc1cccc(C=NNc2ccnc3ccccc23)c1`, the concentration for half-maximal inhibition (IC50) turned out to be 840 nM.

`CCCCCCNC(=O)C1Cc2c([nH]c3ccc(F)cc23)C2(CCN(Cc3ccccc3)CC2)N1` (configuration not stated) came in with an IC50 of 870 nM.

Compound `CC(CN(C)C)C(=O)Nc1ccc(-c2ccc(-c3nc4ccc(C(F)(F)F)cc4[nH]3)cc2)cc1` (configuration not stated) showed an IC50 of 750 nM.

`CN(C)c1ccc(CN2CCC(CNC(=O)c3cc(-c4ccccc4F)cs3)C2)cc1` (configuration not stated): the IC50 turned out to be 910 nM.

In turn, `Cc1[nH]c(C)c(-c2ccc(-c3ccccc3F)nc2)c(=O)c1Cl` gave an IC50 of 250 nM.

In turn, `CCOCCCNc1sc(S(=O)(=O)c2ccccc2)nc1S(=O)(=O)c1ccc(C)cc1` gave an IC50 of 810 nM.

For `CCCC1N=C(N)N=C(N)N1c1ccc(CC)cc1` (configuration not stated), the IC50 was determined as 70 nM.

`Oc1ccc(CC2CCCN(c3nc(NCCCOc4ccccc4-c4ccccc4)nc(N4CCNCC4)n3)C2)cc1` (configuration not stated) showed an IC50 of 920 nM.

Turning to `N#Cc1ccc2c(c1)CCN(CCC1CCC(NC(=O)/C=C/c3cc(Br)cs3)CC1)CC2` (configuration not stated), the IC50 amounted to 1000 nM.

For the compound `CN(C(=O)c1ccccc1)[C@@H]1c2cc(C#N)ccc2OC(C)(C)[C@H]1O`, the IC50 worked out at 650 nM.

The compound `COc1ccc(C(=O)Nc2nonc2-c2ccc(OC)c(OC)c2)cc1Cl` yielded an IC50 of 670 nM.

The compound `CCN(CC)CCCCOc1ccc2c(c1)C(=O)c1cc(OCCCCN(CC)CC)ccc1-2` came in with an IC50 of 760 nM.

Consider `Cc1nc(-c2ccc(-c3ccc(C(=O)Nc4ccc(Cl)c(N5CCN(C)CC5)c4)cc3)c(C)c2)no1`, for which the IC50 was found to be 740 nM.

`CC(CCCCOCCc1ccccc1)NCC(O)c1cc(Cl)c(N)c(Cl)c1` (configuration not stated): the IC50 was determined as 790 nM.

`N#Cc1ccccc1S(=O)(=O)N1CCCC(CNC(=O)[C@H](CC2CCCCC2)NC(=O)c2cc3ccccc3s2)C1` (some centres not stated) had an IC50 of 510 nM.

The compound `Nc1cc(-c2ccc3c(N)nccc3c2)ccc1Cl` had an IC50 of 1540 nM.

Consider `CC[C@H]1CN2CC[C@@H]1C[C@H]2[C@H](O)c1cc(N2CCOCC2)nc2ccc(OC)cc12`, for which the IC50 came out at 120 nM.

In the case of `COc1ccc(NC(=O)Nc2cccc(-c3ccncc3)c2)cc1N1CCN(C)CC1`, the IC50 was 550 nM.

For `COc1cc(Cc2cnc(N)nc2N)ccc1Oc1ccc(N)cc1`, the IC50 came to 870 nM.

Compound `Clc1cccc(CNc2nc(NCCc3cnc[nH]3)nc(NC3CCCCC3)n2)c1` gave an IC50 of 790 nM.

In turn, `CCCN1CCC=C(c2cccc(Nc3nccc(Nc4cc(OC)ccc4C)n3)c2)C1` came in with an IC50 of 1040 nM.

Take `COC(=O)c1ccc(C2OC3(C(=O)c4ccccc4C3=O)C(OC)=C2Cl)cc1C(C)=O` (configuration not stated): the 50% inhibitory concentration (IC50) is 550 nM.

Compound `COc1ccc(N2CCN(CCCCNC(=O)c3ccc(NC(=O)c4ccc(Cl)cc4)cc3)CC2)c(C)c1` returned an IC50 of 760 nM.

For `CC(C)Cc1nc(N2CCOCC2)c2nnn(Cc3ccccc3)c2n1`, the IC50 came out at 510 nM.

For `O=C(/C=C/c1ccc(Cl)c(Cl)c1)NCCCCCN1[C@@H]2CC[C@H]1CC(c1c[nH]c3ccc(O)cc13)C2` (some centres not stated), the IC50 is 880 nM and 1000 nM.

`O=C(Nc1ccc(N2CCN(Cc3ccccc3)CC2)cc1)c1cccs1` displayed an IC50 of 770 nM.

For `COc1ccccc1Cc1nc2ccccc2nc1SCC(=O)Nc1cccc(C(F)(F)F)c1`, the IC50 was 500 nM.

On to `O=C(Nc1ccc(C(F)(F)F)cc1)NC1CCN(c2ccnc3ccccc23)C1` (configuration not stated), for which the IC50 came to 90 nM.

With `O=C(NCC1CCC(CNCCCc2ccccc2)CC1)c1cc(Cl)cc(Cl)c1` (configuration not stated), the IC50 came out at 850 nM.

Compound `COc1cc2c(cc1OC)CN(CCCCNC(=O)c1ccc(NC(=O)c3cc(Cl)cc(Cl)c3)cc1)CC2` yielded an IC50 of 780 nM.

Consider `Cc1ccnc(NC(c2cccc(OCc3ccccc3)c2)c2ccc3cccnc3c2O)c1` (configuration not stated), for which the IC50 stood at 860 nM.

The compound `CN1CCN(C(C(=O)NCc2cc(Cl)cc(Cl)c2)c2ccc(NC(=O)Nc3ccccc3)cc2)CC1` (configuration not stated) had a half-maximal inhibitory concentration (IC50) of 690 nM.

`Oc1ccc(Br)cc1C(O)CNCc1ccccc1OCc1ccccc1` (configuration not stated) had an IC50 of 170 nM.

`NC(=O)c1ccc(NCC(=O)Nc2cccc(-c3cccc(-c4nc5ccc(C(F)(F)F)cc5[nH]4)c3)c2)cc1`: the IC50 came out at 270 nM.

Consider `Cc1ccc(S(=O)(=O)Nc2ccc(Nc3nccc(Nc4cccc5[nH]ncc45)n3)cc2)cc1`, for which the IC50 was found to be 960 nM.

As to `COCC(=O)N(Cc1ccccc1-c1cccc(CNCc2ccc3c(c2)OCO3)c1)C1CCN(Cc2ccccc2)CC1`, the IC50 turned out to be 840 nM.

Consider `COc1ccc2c(c1)CCCC2C(C)NCC(O)c1cccc(C(F)(F)F)c1` (configuration not stated), for which the IC50 is 350 nM.

In turn, `Cc1ccccc1CNCC(O)c1cccc(C(F)(F)F)c1` (configuration not stated) gave an IC50 of 880 nM.

Turning to `Cc1[nH]c(C)c(-c2ccc(OCc3cc(F)cc(F)c3)nc2)c(=O)c1Cl`, the IC50 is 90 nM.

For `CC(C)(C)c1cc(/C=C/C(=O)NC2CCC(CN3CCC(c4c[nH]c5ccccc45)CC3)CC2)cc(C(C)(C)C)c1O` (configuration not stated), the IC50 was 720 nM and 700 nM.

Consider `NCCCCNc1cc(-c2ccnc(Nc3cccc(Cl)c3)n2)ccn1`, for which the IC50 was determined as 280 nM.

Regarding `CC(C)CN(C)Cc1ccc(-c2ccc(-c3nc4ccccc4[nH]3)s2)cc1`, the IC50 was 750 nM.

The compound `CCCCCCN1CCC(CNCc2cccc([N+](=O)[O-])c2)CC1` gave an IC50 of 720 nM.

Compound `CCCc1cc(Cc2cnc(N)nc2N)cc2c1OC(C)C2C` (configuration not stated) gave an IC50 of 670 nM.

Compound `CCN(CC)CCN(Cc1ccc(-c2ccc(C(F)(F)F)cc2)cc1)C(=O)Cn1c(CCc2ccc(F)cc2)nc(=O)c2ccccc21` registered an IC50 of 1070 nM.

Compound `COc1ccc2ncc(F)c(NC(=O)C3CCC(NCc4cc5cc(F)cc(F)c5[nH]4)CC3)c2n1` (configuration not stated) yielded an IC50 of 1090 nM.

For the compound `Cc1c(-c2cccc(C(C)(C)NC3CCN(Cc4ccccc4)CC3)c2)cnc(N)c1C`, the IC50 is 580 nM.

The compound `CCCCNC(=O)[C@@H]1CCCN1C(=O)c1ccc(O)c(-c2ccc(Cl)c(Cl)c2)c1` had an IC50 of 750 nM.

For `COc1ccc(CNCC2CCC(CNCCc3ccccc3)CC2)cc1Cl` (configuration not stated), the IC50 amounted to 790 nM.

Consider `COc1c(C2CCN(CCCCNC(=O)c3noc(-c4ccc(C#N)cc4)n3)CC2)ccc2c1CCCC2`, for which the IC50 is 780 nM.

`CN1CCC(N2CCN(Cc3cccc(-c4ccc(-c5nc6ccc(C(F)(F)F)cc6[nH]5)cc4)c3)CC2)CC1` had an IC50 of 140 nM.

Compound `CCCc1ccc(C(=O)N2[C@@H](c3nccs3)[C@@H](C(N)=O)C[C@@]2(CC(C)C)C(=O)O)cc1` displayed an IC50 of 160 nM.

For the compound `C=C[C@@H]1CN2CC[C@H]1C[C@H]2[C@H](O)c1cc(-c2ccc(Cl)cc2)nc2ccc(OC)cc12`, the IC50 was 30 nM.

With `Cc1cccc2[nH]c(-c3ccc(-c4ccc(CN5CCN(c6ccc(C#N)cn6)CC5)cc4)s3)nc12`, the IC50 is 1130 nM.

Regarding `CCCCCC(C)C(C)c1cc(O)c2c(c1)OC(C)(C)CC2(O)c1ccnn1C` (configuration not stated), the IC50 was 960 nM.

`CCNc1cc(C)nc(Nc2ccc(F)cc2)n1` returned an IC50 of 800 nM.

`CC(=O)c1ccc(N2CCN(C(=O)Nc3ccc(Cl)cc3)CC2)cc1` came in with an IC50 of 980 nM.

`Cc1cc(F)ccc1Nc1nc(N(C)c2ccccc2)c2cccc(O)c2n1` displayed an IC50 of 960 nM.

As for `CN1CCN(c2ccnc3ccc(NC(=O)Cc4ccc(-c5ccncc5)c5ccccc45)cc23)CC1`, the IC50 was 200 nM.

As for `CN(CCCCNC(=O)c1ccc(-c2ccccc2)cc1)C1CCc2c(O)cccc2C1` (configuration not stated), the IC50 was 720 nM.

Take `c1ccc(-c2cc(NCc3cccc4ccccc34)c3[nH]ncc3n2)cc1`: the IC50 is 520 nM.

Take `Cc1cc(C)c(-c2n[nH]c3c2C(c2cccc(Cl)c2)N(Cc2ccco2)C3=O)c(O)c1` (configuration not stated): the IC50 stood at 1010 nM.

On to `O=C(NC1CCN(Cc2cccc(C(F)(F)F)c2)CC1)c1ccc(-c2cccc(C(F)(F)F)c2)s1`, for which the IC50 is 1010 nM.

`COc1ccc(C(=O)Nc2ccc(-c3ccc([N+](=O)[O-])cc3)cc2)cc1CCCN(C)C` registered an IC50 of 800 nM.

Compound `CC[C@H](C)CNC(=O)c1ccnc(-c2ccc(CNCCCc3ccccc3)cc2)c1` registered an IC50 of 1230 nM.

With `CC(C)OCCCNC(=O)c1nc(-c2cccc(C(F)(F)F)c2)sc1C(C)C`, the IC50 worked out at 1160 nM.

Compound `Fc1ccc2nc(-c3ccc(-c4ccc(CNCc5cnn(-c6ccccc6)n5)cc4)cc3)[nH]c2c1` returned an IC50 of 540 nM.

For the compound `COc1cccc(CCc2nc3c(N4CCC(Cc5ccccc5)CC4)cccc3n2CC2CNCCO2)c1` (configuration not stated), the IC50 was found to be 800 nM.

`CCCC(=O)Nc1ccc(OCCCN(Cc2ccccc2C(F)(F)F)c2ccc(C#N)c(C(F)(F)F)c2)cc1` registered an IC50 of 930 nM.

Turning to `COc1cc(Cc2cnc(N)nc2N)ccc1OCC(=O)Nc1ccc(C)cc1`, the IC50 came out at 480 nM.

The compound `O=C(NCc1ccc(C(=O)NC2CCCCCC2)cc1)c1ccc(O)c(-c2ccc(Cl)c(Cl)c2)c1` came in with an IC50 of 1060 nM.

Regarding `Cc1cc(N[C@@H](CC(C)C)C(=O)NCCOc2ccccc2)nc(NCC2CCCCC2)n1`, the IC50 was found to be 970 nM.

As for `Cc1nc(C)c(CC(=O)Nc2ccc(-c3cccc(-c4nc5c(C)cccc5[nH]4)c3)cc2)s1`, the IC50 was 600 nM.

With `CN1CCC(Oc2cc(CN3CC[C@H](NC(=O)c4ccc(Cl)c(Cl)c4)C3)ccc2I)C1` (some centres not stated), the 50% inhibitory concentration (IC50) turned out to be 840 nM.

Compound `O=C(NC1CCC(CCN2Cc3cccc(F)c3C2)CC1)c1cccc(-c2cccnc2)c1` (configuration not stated) returned an IC50 of 300 nM.

`O=C(c1ccc(Cl)cc1)C1CCCN(C2CCN(CCc3ccccc3)CC2)C1` (configuration not stated): the IC50 amounted to 1450 nM.

`c1cc(CN2CCN(CCN3CCOCC3)CC2)cc(-c2cccc(-c3nc4ccccc4[nH]3)c2)c1` yielded an IC50 of 240 nM.

`O=C(CSc1nc2ccccc2c(=O)n1C1CC1)Nc1cc(C(F)(F)F)ccc1Cl`: the IC50 amounted to 110 nM.

Consider `O=C(Cc1cccnc1)Nc1cccc(-c2cccc(-c3nc4ccc(C(F)(F)F)cc4[nH]3)c2)c1`, for which the IC50 turned out to be 680 nM.

`O=C(Nc1cccc2ccccc12)N1CCc2cc3nccc(N4CCN5CCC[C@H]5C4)c3cc21` displayed a half-maximal inhibitory concentration (IC50) of 890 nM.

The compound `Clc1cccc(Nc2ccc3c(N4CCCCC4)ncnc3n2)c1` gave an IC50 of 580 nM.
